Test results: patent US12090225B2 (Avalyn Pharma Inc., priority 2018, dated 2024)
Read-outs that look alike come from different tables or passages of the source. Each block holds one compound with its values, some of them ahead of it.

Columns and labels:
[1] = Apparent solubility of nintedanib HBr laboratory scale batches; assay type: physicochemical
Text: During this process, a new polymorphic form was identified (pattern X)

[2] = Pattern stability screen of potential salts (40° C./75% RH, XRPD); assay type: physicochemical
[3] = Aqueous solubility assessment of salts; assay type: physicochemical
[4] = Human inhaled dose projection vs Ofev 150 mg oral; settings: 0.42 mg inhaled vs Ofev 150 mg oral
[5] = pH-solubility of nintedanib HBr Pattern 4 and Pattern X; assay type: physicochemical; settings: distilled water, over 48 hours, UV/vis 390 nm, unit assumed
Experimental: The solubility of Pattern 4 and Pattern X at various pH values were determined by UV/vis spectrophotometry. Excess Pattern 4 and Pattern X HBr salts were added to distilled water, vortexed at high speed and the pH was adjusted to the target value by adding 1N HCl or 1N NaOH. The test solutions were mixed on a magnetic stirrer for over 48 hours, then filtered through a 0.22 μm nylon membrane syringe filter and analyzed by uv/vis spectrophotometry at 390 nm. […] The solubility of both polymorphic forms decreases with increasing pH. Both polymorphic forms have similar solubility profile.

[6] = Temperature-solubility of nintedanib HBr Pattern 4 and Pattern X; assay type: physicochemical; settings: distilled water, over 48 hours
Experimental: During this time period, the samples were periodically taken out of the storage, vortexed, and returned to storage condition. At the end of the incubation period, the test solutions were filtered through a 0.22 μm nylon membrane syringe filter and analyzed by uv/vis spectrophotometry (at 390 nm) for drug concentration. Table 29 summarizes the solubility of both salt forms as a function of temperature. The solubility of both polymorphic forms increases with increasing temperature. Both polymorphic forms have similar solubility profiles.

[7] = Inhaled pharmacokinetics of nintedanib salt forms (intratracheal); assay type: in vivo, C57BL/6 mice; settings: C57BL/6 mice; for AUC 0-last / Elimination half-life (alpha-phase): 1.0 mg/kg IT; for Cmax: 1.0 mg/kg IT (base equivalent)
[8] = Dynamic Vapour Sorption (DVS) hygroscopicity; assay type: physicochemical; settings: for DVS mass uptake at 90% RH: 25° C., uptake from input material; for Hygroscopicity: DVS
Experimental: Dynamic Vapour Sorption (DVS). Approximately, 10 mg of sample was placed into a mesh vapour sorption balance pan and loaded into a DVS-1 or DVS Advantage dynamic vapour sorption balance by Surface Measurement Systems. The sample was subjected to a ramping profile from 40-90% relative humidity (RH) at 10% increments, maintaining the sample at each step until a stable weight had been achieved (dm/dt 0.004%, minimum step length 30 minutes, maximum step length 500 minutes) at 25° C. After completion of the sorption cycle, the sample was dried using the same procedure to 0% RH and then a second sorption cycle back to 40% RH. Two cycles were performed. The weight change during the sorption/desorption cycles were plotted, allowing for the hygroscopic nature of the sample to be determined. XRPD analysis was then carried out on any solid retained.

[9] = 7 day stability testing of salts (40° C./75% RH, 80° C., ambient light; HPLC purity, XRPD); assay type: physicochemical; settings: for XRPD pattern after 7 day stability testing: listed as phosphate salt
Experimental: High Performance Liquid Chromatography-Ultraviolet Detection (HPLC-UV): Instrument: Dionex Ultimate 3000; Column: Acquity CSH C18 100 mm×2.1 mm 1.7 μm; Column Temperature: 50° C.; Autosampler Temperature: Ambient; UV wavelength: 210 nm; Injection Volume: 4 μL; Flow Rate: 0.6 mL/min; Mobile Phase A: 0.1% formic acid in water; Mobile Phase B: 0.1% formic acid in acetonitrile. The HPLC method used the gradient in Table 2.
FT-IR appeared to be consistent with the structure. […] The material was physically stable to changes in temperature and humidity when stored for one week.
A new, poorly crystalline pattern was produced when stored at 40° C./75% RH—Pattern 4.
Purity of these materials remained unchanged (as shown in Table) apart from the sample stored at ambient light, where a 0.5% drop in purity was observed.

[10] = Disproportionation/hydration studies (pH, XRPD pattern); assay type: physicochemical
Text: No XRPD data could be compiled on the hydration or disproportionation of the salt due to the high solubility in water and acetone/water mixtures.
The salt only remained Pattern 1 at 0.3 aw. New patterns 6 and 7 are likely hydrated due to the high water activity conditions for production.

[11] = Inhaled pharmacokinetics of fixed combination nintedanib esylate and pirfenidone; assay type: in vivo, C57BL/6 mice; settings: 10.0 mg/kg each IT; for half-life: read-out: Elimination half-life (alpha-phase)
Experimental: Plasma and lung tissue samples were taken 2, 5, 10, 20, 40 min and 1, 2, and 4 hours post dose. Nintedanib was extracted and quantitated as μg/mL plasma and μg/gram lung tissue.

[12] = Water Activity 0.3 (acetone/water)
[13] = Water Activity 0.6 (acetone/water)
[14] = Water Activity 0.9 (acetone/water)
[15] = female, C57BL/6, mouse, inhaled or intranasal, Lung (whole lung homogenate)
[16] = female, C57BL/6, mouse, inhaled or intranasal, Plasma

Compound: Br.COC(=O)c1ccc2c(c1)NC(=O)/C2=C(\Nc1ccc(N(C)C(=O)CN2CCN(C)CC2)cc1)c1ccccc1 [AP143]
Apparent Solubility [1]: 960 µg/mL

Compound: CC(=O)O [Acetate]
XRPD pattern after 72 hrs 40° C./75% RH ([2]; Initial pattern 1): 1(FB)
XRPD pattern after 72 hrs 40° C./75% RH ([2]; Initial pattern 2): 1

Compound: O=C(O)/C=C/C(=O)O [Fumarate]
XRPD pattern after 72 hrs 40° C./75% RH ([2]; Initial pattern 1): 1
XRPD pattern after 72 hrs 40° C./75% RH ([2]; Initial pattern 2): 2(MU)
pH (aqueous solubility measurement) ([3]; primary screen samples): 6.41

Compound: COC(=O)c1ccc2c(c1)NC(=O)/C2=C(\Nc1ccc(N(C)C(=O)CN2CCN(C)CC2)cc1)c1ccccc1.O=S(=O)(O)CCO [HESA]
XRPD pattern after 72 hrs 40° C./75% RH ([2]; Initial pattern 1): 2
XRPD pattern after 72 hrs 40° C./75% RH ([2]; Initial pattern 2): 2

Compound: COC(=O)c1ccc2c(c1)NC(=O)/C2=C(\Nc1ccc(N(C)C(=O)CN2CCN(C)CC2)cc1)c1ccccc1 [Inhaled nintedanib]
% Pharmacokinetics (inhaled compared to oral), AUC ([4]; lung): 1047%
% Pharmacokinetics (inhaled compared to oral), Cmax ([4]; lung): 2600%
% Pharmacokinetics (inhaled compared to oral), AUC ([4]; plasma): 100%
% Pharmacokinetics (inhaled compared to oral), Cmax ([4]; plasma): 83%

Compound: N[C@@H](CC(=O)O)C(=O)O [L-Aspartic acid]
XRPD pattern after 72 hrs 40° C./75% RH ([2]; Initial pattern 1): 1

Compound: COC(=O)c1ccc2c(c1)NC(=O)/C2=C(\Nc1ccc(N(C)C(=O)CN2CCN(C)CC2)cc1)c1ccccc1.CS(=O)(=O)O [MSA]
XRPD pattern after 72 hrs 40° C./75% RH ([2]; Initial pattern 1): 1
XRPD pattern after 72 hrs 40° C./75% RH ([2]; Initial pattern 2): 1

Compound: Br.COC(=O)c1ccc2c(c1)NC(=O)/C2=C(\Nc1ccc(N(C)C(=O)CN2CCN(C)CC2)cc1)c1ccccc1 [Nintedanib HBr Pattern 4, Nintedanib hydrobromide, XRPD Pattern 4]
solubility ([5]; pH 3.1): 2010 µg/mL
solubility ([5]; pH 3.9): 1470 µg/mL
solubility ([5]; pH 4.7): 1380 µg/mL
solubility ([5]; pH 5.3): 1070 µg/mL
Nintedanib HBr Solubility ([6]; 5° C.): 790 µg/mL
Nintedanib HBr Solubility ([6]; 22° C.): 1380 µg/mL
Nintedanib HBr Solubility ([6]; 40° C.): 3200 µg/mL

Compound: Br.COC(=O)c1ccc2c(c1)NC(=O)/C2=C(\Nc1ccc(N(C)C(=O)CN2CCN(C)CC2)cc1)c1ccccc1 [Nintedanib HBr Pattern X, Nintedanib hydrobromide, XRPD Pattern X]
solubility ([5]; pH 3.1): 1860 µg/mL
solubility ([5]; pH 3.9): 1720 µg/mL
solubility ([5]; pH 4.4): 1490 µg/mL
solubility ([5]; pH 5.1): 1400 µg/mL
Nintedanib HBr Solubility ([6]; 5° C.): 650 µg/mL
Nintedanib HBr Solubility ([6]; 22° C.): 1490 µg/mL
Nintedanib HBr Solubility ([6]; 40° C.): 3410 µg/mL

Compound: Br.COC(=O)c1ccc2c(c1)NC(=O)/C2=C(\Nc1ccc(N(C)C(=O)CN2CCN(C)CC2)cc1)c1ccccc1 [Nintedanib bromide]
AUC 0-last ([7]; lung (whole lung homogenate)): 51.2 mg·h/kg
Elimination half-life (alpha-phase) ([7]; lung (whole lung homogenate)): 4.1 min
Cmax ([7]; plasma): 200 ng/mL
AUC 0-last ([7]; plasma): 200 ng·h/mL
Elimination half-life (alpha-phase) ([7]; plasma): 2.4 min

Compound: COC(=O)c1ccc2c(c1)NC(=O)/C2=C(\Nc1ccc(N(C)C(=O)CN2CCN(C)CC2)cc1)c1ccccc1.Cl [Nintedanib chloride]
AUC 0-last ([7]; lung (whole lung homogenate)): 60.1 mg·h/kg
Elimination half-life (alpha-phase) ([7]; lung (whole lung homogenate)): 3.9 min
Cmax ([7]; plasma): 400 ng/mL
AUC 0-last ([7]; plasma): 200 ng·h/mL
Elimination half-life (alpha-phase) ([7]; plasma): 1.7 min

Compound: COC(=O)c1ccc2c(c1)NC(=O)/C2=C(\Nc1ccc(N(C)C(=O)CN2CCN(C)CC2)cc1)c1ccccc1.O=P(O)(O)O.O=P(O)(O)O [Phosphate]
DVS mass uptake at 90% RH [8]: further 10.6% uptake up
DVS mass uptake at 90% RH ([8]; listed as phosphate salt): ca. 10.6%
Hygroscopicity [8]: Hygroscopic
Hygroscopicity ([8]; listed as phosphate salt): hygroscopic
XRPD pattern after 72 hrs 40° C./75% RH ([2]; Initial pattern 1): 1
XRPD pattern after 72 hrs 40° C./75% RH ([2]; Initial pattern 2): 2
Purity (%) ([9]; 40° C./75% RH, 7 day stability testing): 99.8%
XRPD pattern after 7 day stability testing ([9]; 40° C./75% RH): Pattern 4
XRPD pattern after 7 day stability testing ([9]; 80° C. and ambient conditions/light): remain Pattern 3
Purity (%) ([9]; 80° C., 7 day stability testing): 99.2%
Purity (%) ([9]; Ambient, 7 day stability testing): 99.6%
Purity (%) ([9]; Input): 99.9%
pH Post-Agitation [10, 12]: 2.68
pH Pre-Agitation [10, 12]: 3.08
pH Post-Agitation [10, 13]: 2.52
pH Pre-Agitation [10, 13]: 2.60
pH Post-Agitation [10, 14]: 2.35
pH Pre-Agitation [10, 14]: 2.34
pH Post-Agitation ([10]; Water Activity 1.0 (water)): 1.78
pH Pre-Agitation ([10]; Water Activity 1.0 (water)): 2.75
pH at 6 h ([3]; salt in water, after agitation): 3.00
pH at 18 h ([3]; salt in water, after agitation): 2.11
Initial pH ([3]; salt in water, solubility assessment): 3.43

Compound: Cc1ccc(=O)n(-c2ccccc2)c1 [Pirfenidone]
AUC 0-last ([11]; Lung (whole lung homogenate)): 5.2 mg·h/kg
Cmax [11, 15]: 279000 ng/g
half-life [11, 15]: 0.7 min
AUC(0-t) [11, 16]: 3800 ng·h/mL
Cmax [11, 16]: 7900 ng/mL
half-life [11, 16]: 8.9 min

Compound: O=S(=O)(O)O [Sulfuric acid]
XRPD pattern after 72 hrs 40° C./75% RH ([2]; Initial pattern 1): 1
XRPD pattern after 72 hrs 40° C./75% RH ([2]; Initial pattern 2): 1
XRPD pattern after 72 hrs 40° C./75% RH ([2]; Initial pattern 3): 3
XRPD pattern after 72 hrs 40° C./75% RH ([2]; Initial pattern 4): 3

Compound: Maleic acid
XRPD pattern after 72 hrs 40° C./75% RH ([2]; Initial pattern 1): 1
XRPD pattern after 72 hrs 40° C./75% RH ([2]; Initial pattern 2): 2

Compound: Saccharin
XRPD pattern after 72 hrs 40° C./75% RH ([2]; Initial pattern 1): 2
XRPD pattern after 72 hrs 40° C./75% RH ([2]; Initial pattern 2): 2
Solubility (aqueous) [3]: <625 µg/mL
pH (aqueous solubility measurement) [3]: 5.51

Continued, values first:

Apparent Solubility [1]: 2040 µg/mL
Compound: Br.COC(=O)c1ccc2c(c1)NC(=O)C2=C(Nc1ccc(N(C)C(=O)CN2CCN(C)CC2)cc1)c1ccccc1 [AP018]

Apparent Solubility [1]: 970 µg/mL
Compound: Br.COC(=O)c1ccc2c(c1)NC(=O)C2=C(Nc1ccc(N(C)C(=O)CN2CCN(C)CC2)cc1)c1ccccc1 [AP036]

Apparent Solubility [1]: 1960 µg/mL
Compound: Br.COC(=O)c1ccc2c(c1)NC(=O)C2=C(Nc1ccc(N(C)C(=O)CN2CCN(C)CC2)cc1)c1ccccc1 [AP064]

Apparent Solubility [1]: 1020 µg/mL
Compound: Br.COC(=O)c1ccc2c(c1)NC(=O)C2=C(Nc1ccc(N(C)C(=O)CN2CCN(C)CC2)cc1)c1ccccc1 [AP069]

Apparent Solubility [1]: 1950 µg/mL
Compound: Br.COC(=O)c1ccc2c(c1)NC(=O)C2=C(Nc1ccc(N(C)C(=O)CN2CCN(C)CC2)cc1)c1ccccc1 [AP152]

Apparent Solubility [1]: 2050 µg/mL
Compound: Br.COC(=O)c1ccc2c(c1)NC(=O)C2=C(Nc1ccc(N(C)C(=O)CN2CCN(C)CC2)cc1)c1ccccc1 [AP177d]

Apparent Solubility [1]: 1030 µg/mL
Compound: Br.COC(=O)c1ccc2c(c1)NC(=O)C2=C(Nc1ccc(N(C)C(=O)CN2CCN(C)CC2)cc1)c1ccccc1 [AP177w]

Apparent Solubility [1]: 1940 µg/mL
Compound: Br.COC(=O)c1ccc2c(c1)NC(=O)C2=C(Nc1ccc(N(C)C(=O)CN2CCN(C)CC2)cc1)c1ccccc1 [AP178d]

Apparent Solubility [1]: 1010 µg/mL
Compound: Br.COC(=O)c1ccc2c(c1)NC(=O)C2=C(Nc1ccc(N(C)C(=O)CN2CCN(C)CC2)cc1)c1ccccc1 [AP178w]
